The results in this text go back to PubChem BioAssay (NCI).

Several values for one entry are separate records, joined by “and”; a condition that tells them apart may be missing. Equal entries are not always repeated.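 In this assay, cells in 96-well plates receive the compound at five concentrations for 48 hours. Endpoints are linearly interpolated between the surrounding concentrations. GI50 = concentration required for 50% inhibition of growth. TGI: total growth inhibition.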 Where only a bound is given, the exact number is not on record here.

Holding throughout (test): growth of human tumour cells (NCI), 48 h
The subject of assay [1] is MDA-N.
The test system of assay [2] is DMS 114 small cell lung.
For assay [3], the system named is M19-MEL melanoma.
For assay [4], the system named is DLD-1 colon.
The subject of assay [5] is RXF-631 renal.
The subject of assay [6] is HOP-18 NSCLC.
The subject of assay [7] is LXFL 529 NSCLC.
Assay [8] deals with XF 498 CNS.
For assay [9], the system named is KM20L2 colon.

As for `CC[C@@]1(O)C(=O)NCc2c1cc1n(c2=O)Cc2cc3ccccc3nc2-1`, in assay [1], the GI50 was 12.4 µM and the TGI was above 100 µM.

Take `O=C1C2c3[nH]c4ccccc4c3[C@@H]3CCCCCCCCCCC3C2C(=O)N1c1ccccc1` (stereo partly drawn): the TGI in [2] was 37 µM; in [3] it was 57.4 µM; in [4] it was above 100 µM; in assay [5], 28 µM; in assay [6], 99.6 µM; in assay [7], 28.1 µM.

Consider `Nc1[nH]c(=O)ncc1F`, for which the TGI in [1] was above 100 µM.

As for `C[Si](C)(C)/C=C/CCC(C=O)(CCCl)c1ccccc1` (stereo not drawn), the TGI in assay [2] is 54.9 µM; in assay [8], 36 µM; in assay [3] it was above 100 µM; in assay [9], above 100 µM; in [4], above 100 µM; in assay [6], 80 µM. In [7], the TGI was above 100 µM.

Consider `CC1=NNC(=NCCN(C)C)C/C1=C/c1ccccc1Cl`, for which the TGI in assay [2], in assay [8], in [3], in assay [9], in assay [4] and in [5] was above 100 µM each time. For the same compound, the TGI in [6] and in assay [7] was above 100 µM each time.

For `CC(C)[C@@H]1C=C(c2ccccc2)c2ccccc2C1C(C#N)(C#N)C(C)C` (stereo partly drawn), the TGI in [2], in assay [8], in assay [3], in [9], in assay [4] and in assay [6] was above 100 µM in each case. The compound further came in with a TGI in assay [7] above 100 µM.

Regarding `Nc1nc2c(ncn2C2OC(CO)C(O)C2N)c(=O)[nH]1` (stereo not drawn), the TGI in assay [2], in [8], in assay [3], in [4], in assay [5] and in assay [7] was above 100 µM in each case.

Take `COC(=O)C[CH](C(=O)OC)[Ge]([CH3])([CH3])[S]c1ccccc1` (stereo not drawn): the GI50 in [3] is 16.9 µM; in assay [9] it was 26.7 µM; in assay [4] it was 22 µM; in assay [6], above 100 µM; in [7], 17.5 µM. The TGI in assay [3] is 54.7 µM; in [9] it was 67.9 µM; in [4] it was 42.4 µM; in assay [6] it was above 100 µM; in [7], 36 µM.

In assay [1], `C/C(=C\c1ccc(Cl)cc1)C(C)(C)C(=O)O` showed a TGI above 100 µM.

Regarding `CCCCCCCCCCCC(=O)OCC1OC(n2cc(F)c(=O)[nH]c2=O)C(NC(=O)OCc2ccccc2)C(O)C1O` (stereo not drawn), the TGI in assay [3] was 37.2 µM; in assay [9], 42.3 µM; in assay [7] it was 34.3 µM.

Regarding `OCC(O)C(O)c1nn(-c2ccccc2)c2nc3cc(Cl)c(Cl)cc3nc12` (stereo not drawn), the TGI was 71.4 µM in [2]; above 100 µM in assay [8]; above 100 µM in assay [3]; 75.8 µM in [9]; above 100 µM in assay [4]; 91.5 µM in assay [5]. Further, the TGI was above 100 µM in assay [6] and 70.9 µM in assay [7].

In the case of `NCCCCCS(=O)(=O)O`, the TGI in [2], in [3], in [9], in [4], in [5] and in assay [6] was above 100 µM in each case. In [7], this compound gave a TGI above 100 µM.

For the compound `COc1ccc2cccc(C(=O)c3ccc(C)c4c3CCC4)c2c1`, the TGI in assay [2] was above 100 µM; in [3], above 100 µM; in assay [9], above 100 µM; in assay [4], above 100 µM; in assay [5] it was 43.9 µM; in assay [6], above 100 µM. The compound further registered a TGI in [7] above 100 µM.

In turn, `C(=N\Nc1nnc2c(n1)[nH]c1ccccc12)/c1cccnc1` displayed a TGI in [1] above 100 µM.

With `C/C1=C\[C@H](C)C[C@H](C)OC(=O)C[C@H](c2ccc(O)cc2)NC(=O)[C@@H](Cc2c(Br)[nH]c3ccccc23)N(C)C(=O)[C@H](C)NC(=O)[C@@H](C)C1`, the GI50 in assay [2] was 0.0424 µM; in assay [8], 0.0249 µM; in assay [3], 0.0414 µM; in assay [9] it was 0.0277 µM; in [4], 0.148 µM; in assay [5], 0.047 µM. The GI50 in [7] was 0.0299 µM. For the same compound, the TGI in [2] was 0.837 µM and 1.56 µM; in assay [8] it was 0.448 µM and 0.0585 µM; in assay [3], 2.02 µM; in [9] it was 10.7 µM; in assay [4] it was 2.39 µM; in assay [1] it was 2.83 µM. The TGI in assay [7] amounted to 3.41 µM.

`N#Cc1cccc(NC(=O)c2ccc(C(=O)O)c(C(=O)c3ccc(C(=O)O)c(C(=O)Nc4cccc(C#N)c4)c3)c2)c1`: the TGI in [2], in assay [8], in [3], in assay [9], in [4] and in assay [6] was above 100 µM throughout. The same compound returned a TGI in assay [7] above 100 µM.

In the case of `CN(C)c1ccc(/C=C2\C[C@H]3[C@@H]4CC=C5C[C@@H](N6CCCC6)CC[C@]5(C)[C@H]4CC[C@]3(C)[C@H]2O)cc1`, in assay [1], the GI50 is 2.87 µM; the TGI is 2.34 µM and 8.6 µM.

Consider `Cc1cc(C)cc(-n2c3nc(=O)n(C)c(=O)c-3nc3ccccc32)c1`, for which the TGI in assay [2] is 29.1 µM; in assay [8], 81 µM; in assay [3], 18.5 µM; in [9], 52.9 µM; in assay [5] it was 80.3 µM; in assay [6] it was above 100 µM. This compound displayed a TGI in assay [7] above 100 µM.

Consider `Cn1cnc([N+](=O)[O-])c1Sc1ccccn1`, for which the TGI in assay [2] was above 100 µM; in [8] it was above 100 µM; in assay [3], above 100 µM; in assay [4], above 100 µM; in assay [5], above 100 µM; in [6], 96.1 µM. The compound also came in with a TGI in [7] above 100 µM.

For `Cc1ccc(S(=O)(=O)N(/N=C(\N)Oc2ccc(Cl)cc2)C(=N)Oc2ccc(Cl)cc2)cc1`, the TGI in assay [2], in assay [8], in [3], in assay [9], in [4] and in assay [6] was above 100 µM throughout. Further, in [7], the TGI was above 100 µM.

Consider `O=C(c1ccccc1)C1C(C(=O)c2ccccc2)N1Cc1ccccc1` (stereo not drawn), for which the TGI in assay [1] came to 37.4 µM.

Take `S=c1nc(-c2nc(=S)[nH]c3c2CCCCCCCCCC3)c2c([nH]1)CCCCCCCCCC2`: in [1], the TGI was above 100 µM.

With `O=C(c1cc(O)ccc1O)c1ccccc1C(Cl)(Cl)Cl`, the TGI in [2] was above 100 µM; in [8], 84.2 µM; in [3], above 100 µM; in assay [9] it was above 100 µM; in [6], above 100 µM; in [7], above 100 µM.

Turning to `O=c1[nH]cc(CS(=O)(=O)Cc2c[nH]c(=O)[nH]c2=O)c(=O)[nH]1`, the TGI in assay [1] is above 100 µM.

Take `N/C(=N\NS(=O)(=O)c1ccccc1)Oc1ccc(Cl)cc1`: the TGI in [2], in [8], in [3], in assay [9], in assay [4] and in assay [6] was above 100 µM throughout. The same compound yielded a TGI in assay [7] above 100 µM.

Take `COc1ccccc1/C=C\c1cnnc2ccccc12`: the TGI in assay [1] is 9.66 µM.

`O=C(CC(=O)N1N=C(c2ccccc2)C(N=Nc2ccc(C(=O)O)cc2)C1=O)Nc1ccc(F)cc1` (stereo not drawn): the TGI is above 100 µM in assay [2]; 93.4 µM in assay [8]; above 100 µM in assay [3]; above 100 µM in [9]; above 100 µM in assay [4]; above 100 µM in assay [5]. In assay [7], this compound registered a TGI above 100 µM.

As to `CC(=O)NS(=O)(=O)c1ccc(NC(=O)COC(=O)c2cccc3c(=O)c4ccccc4[nH]c23)cc1`, the TGI in assay [2], in [8], in [3] and in assay [6] was above 100 µM each time.

Take `Cn1c2c([N+](=O)[O-])[se]nc2c(=O)n1-c1ccc([N+](=O)[O-])cc1`: the TGI in [2] was 0.575 µM; in assay [8], 3.71 µM; in [9], 18.3 µM; in [4], 2.69 µM; in assay [5] it was 4.04 µM; in assay [6], 5.17 µM. For the same compound, the TGI in assay [7] is 2.5 µM.

On to `COC(=O)/C=C/C(=O)C1C(C(=O)OC)C2(C(=O)OC)CCC1(C(=O)OC)N2` (stereo not drawn), for which the TGI in assay [2], in [3], in assay [4] and in [6] was above 100 µM in each case.

For `Cc1cnc[nH]c1=O`, the TGI in [2], in assay [3], in assay [9], in assay [4], in assay [5] and in [6] was above 100 µM each time. Besides, the TGI in assay [7] was above 100 µM.

As for `O=C(O)c1c(O)c2cc(Br)ccc2oc1=O`, in assay [1], the TGI is above 100 µM.

`CCOC1OCCCC1Br` (stereo not drawn) gave a TGI in [1] above 100 µM.

On to `CC#C[C@@]1(O)CCCC[C@@H]1O`, for which the TGI in assay [2], in assay [8], in [3], in assay [9], in assay [5] and in assay [6] was above 100 µM each time.

With `c1ccc2c(CNCCCCCCNCc3cccc4ccccc34)cccc2c1`, the TGI was 20.2 µM in [2]; 7.26 µM in assay [8]; 14.3 µM in assay [3]; 6.74 µM in assay [9]; 13.8 µM in assay [4]; 9.46 µM in assay [5]. Besides, the TGI in [6] stood at 29.1 µM; in assay [7], 3.39 µM.

Turning to `O=NC1c2cccc3cccc(c23)C1N=O` (stereo not drawn), the TGI in assay [1] is 25.4 µM.

As to `COC(=O)C1=C(OC)c2cc3c(cc2C(c2cc(OC)c(OC)c(OC)c2)C1C(=O)OC)OCO3` (stereo not drawn), the TGI in assay [2], in [8], in assay [3], in [9], in [4] and in assay [6] was above 100 µM in each case. Also, in assay [7], the TGI is above 100 µM.
